Columns and labels:
Sprague-Dawley rats [1] = test: Reversal of Phencyclidine (PCP)-Induced Hyperlocomotor Activity in Rats; assay type: in vivo; settings: Rattus norvegicus
Text: Administration of NMDA receptor antagonists, such as ketamine or phencyclidine (PCP), produces psychotomimetic-like effects in humans that are similar to those symptoms observed in patients with schizophrenia.
Motor activity is monitored by placing individual male, Sprague-Dawley (Harlan, Indianapolis, Ind.) rats in transparent, plastic shoe-box cages of the dimensions 45×25×20 cm, with 1 cm depth of wood chips as bedding, and a metal grill on top of the cage. Motor monitors (Kinder Scientific) consist of a rectangular rack of 12 photobeams arranged in an 8×4 formation, (or a high density grouping of 22 in a 15×7 pattern) at a height of 5 cm, with a second rack (for measuring rearing behaviors) at a height of 15 cm. The shoe box cage is placed inside of these racks, with the racks on a 3 foot high tabletop in an isolated room. A compound of the present invention is dosed (intraperitoneal route (i.p.), non-prodrug) within a range of 0.3-10 mg/kg, 30 minutes prior to a 5 mg/kg challenge dose of phencyclidine (PCP). A compound of the present invention is dosed (oral route, prodrug) within a range of 0.3-30 mg/kg, in overnight fasted rats, 4 hours prior to a 5 mg/kg challenge dose of PCP. On the test day, rats are placed in the test cage and allowed to acclimate for 30 minutes prior to PCP challenge; rats are monitored for an additional 60 minutes following PCP administration.
Data analysis and ED50 calculations are conducted using GraphPad Prism (San Diego, Calif. USA). Power analyses have determined that 8-10 rats per group are needed to have appropriate statistical power for detecting treatment differences (power=0.8). A one-way analysis of variance (ANOVA) with a post-hoc Dunnett's multiple comparison test is conducted on the total 60 minute locomotor activity. ED50 calculations are performed using non-linear regression curve fitting on percent reversal transformed data for each dose.

Fischer F-344 rats = test: Attenuation of Stress-Induced Hyperthermia in Rats; assay type: in vivo, rat; settings: dose producing 35% reduction in stress-induced hyperthermic response
Text: In many anxiety disorders, hyperthermia occurs as part of the pathology and is considered a symptom of the disease. Compounds which attenuate stress-induced hyperthermia in animals are believed to be useful in treating anxiety disorders in humans. Generalized anxiety disorder is an example of such disorders that may be treated with such compounds. The conventional and minimally-invasive method for analyzing stress-induced hyperthermia is by measuring body temperature, and stress-induced increases in body temperature, via rectal thermometer. Male Fischer F-344 rats (Harlan, Indianapolis, Ind., USA) weighing between 275-350 g are tested. All animals are individually-housed with food and automated water available ad libitum, and maintained on a 12 h light/dark cycle (lights on at 06:00). Animals are fasted for approximately 12-18 hours before the experiment, which is conducted during the light phase. Rats are dosed two hours prior to the experiment by either intraperitoneal (i.p., non-prodrug) or per os (p.o., prodrug) route of administration in a dose volume of 1 mL/kg. […]
After the pretreatment period, rats are taken individually to a brightly lit adjacent room where baseline body temperatures are determined by insertion of a rectal probe lubricated with mineral oil. Body temperature is assessed using a […] […] Ten minutes later a second body temperature measurement is recorded (T2). […]

[2] = 1 h, 10 µM, pH 7.4
Method: Frozen human duodenum intestinal homogenates (1:2 tissue:buffer ratio using 100 mM Tris Phosphate buffer, pH 7.4) are obtained from Celsius In Vitro Technologies (Baltimore, Md.) that were both phenylmethylsulphonylfluoride (PMSF) and EDTA free.
Each lot of human duodenum is obtained from a single donor and the intestine is scraped and the sections are frozen separate. All original tissue collections are performed at 4° C. and immediately frozen at −70° C. Human intestinal homogenates are thawed and diluted to a final protein concentration of 0.5 mg/mL in 100 mM PBS buffer, pH 7.4 immediately prior to the incubations.
Incubations are conducted in 96-well plates and all prodrug compounds are run in duplicate on each day. Stock prodrug compound solutions are prepared in water at a concentration of 1 mM. A 200 μL aliquot of 0.5 mg/mL intestinal homogenate and 196 μL of 100 mM PBS buffer are placed in a 96-well plate in a 37° C. water bath. Using a 96-well pipettor, 4 μL of the 1 mM prodrug compound solution is transferred into the homogenate. Immediately after addition of the prodrug compound (time zero) and after 1 hour incubation, 50 μL samples of the incubation mixture are removed using an automated disposable simultaneous 96 well pipettor and added directly to 200 μL of methanol quench solution containing 100 ng/mL of Internal Standard. The samples are then centrifuged at 3500 rpm for 5 minutes at 10° C. The supernatant (200 μL) is transferred to a final 96 well PCR plate and sealed for analysis by LC/MS/MS.
Concentrations of hydrolyzed compounds of the present invention in the incubation mixtures are determined using LC/MS/MS detection on a Sciex API 4000 quadrapole mass spectrometer with Analyst version 1.4.2, TurboIonSpray, positive ionization, and Selected Reaction Monitoring (SRM). A Waters Atlantis® T3 (20×2.1 mm, 5 μM) HPLC column is used at ambient temperature with a flow rate of 1.0 mL/min and a mobile phase gradient from 0.1% mobile phase A to 99% mobile phase A. Mobile phase A is 1000:5 water:heptafluorobuteric acid and mobile phase B is 1:1 methanol:glacial acetic acid.
Concentrations of hydrolyzed compounds of the present invention in the intestinal incubation mixtures are determined from standard curves prepared by replicate two-fold dilution starting at 10 μM in 100 mM PBS pH 7.4 and subsequently quenched with methanol-internal standard solution identical to the samples. Averages and standard deviations are calculated using Microsoft® Office Excel® 2007. Amount of hydrolysis is determined as a molar percentage of compound formed relative to prodrug compound concentration added. […] Final values are then normalized relative to the formation of Internal Compound Drug A.

Sprague-Dawley rats [3] = test: Forced Swim Test in rats; assay type: in vivo, rat
Method: In this assay, mechanisms with purported antidepressant-like activity decrease immobility in a brief inescapable forced swim episode.
The forced-swim test is conducted with both mice (male, NIH-Swiss mice, 20-25 g, Harlan Sprague-Dawley, Indianapolis, Ind.) and rats (male, Sprague-Dawley rats, 250-350 g, Harlan Sprague-Dawley, Indianapolis, Ind.). Mice are placed in clear plastic cylinders (diameter 10 cm; height: 25 cm) filled to 6 cm with 22-25° C. water for six min. The duration of immobility is recorded during the last 4 min of a six-minute trial. Rats are treated similarly, albeit in clear plastic cylinders of larger dimensions (diameter: 18 cm; height: 40 cm) filled with water (22-25° C.) to a depth of 16 cm for 15 min. Additionally, mice receive a single forced swim exposure; rats receive two, 5-min sessions separated by 24 hours (data is recorded only on Day 2). The compound of Example 1 is tested in mice using intraperitoneal dosing (1, 3, or 10 mg/kg), 60 min prior to testing. […] Example 2 is administered 5 min following the first forced swim exposure and 120 min prior to the test session on Day 2. Imipramine is used as a positive control for these studies. Compounds are formulated in a water vehicle, with minimal NaOH being added to Example 1 and Example 2. Compounds are in a clear solution. The amount of time spent immobile (defined as movements only necessary to keep the subject's head above water) is the dependent measure and recorded by an observer blinded to the drug treatment of the subjects. Data are analyzed by post-hoc Dunnett's test with alpha level set at 0.05. The mouse version of the forced swim test is most commonly used. An ED60 value (60% of the amount of immobility relative to vehicle controls) is calculated to estimate potency of the test compounds.

SMILES | ED50 (Sprague-Dawley rats [1]; 0.5 h, i.p., 30 minutes prior to 5 mg/kg PCP) [mg/kg] | T35 (Fischer F-344 rats; i.p.) [mg/kg] | human intestinal hydrolysis relative to Internal Prodrug Compound A [2] [%] | ED50 (Sprague-Dawley rats [1]; p.o., overnight fasted, 4 hours prior to 5 mg/kg PCP) [mg/kg] | maximal effect, immobility as % of vehicle-treated rats (Sprague-Dawley rats [3]; oral dosing) [%] | immobility time (Sprague-Dawley rats [3]; oral, following dosing with 4.1 and 13.8 mg/kg, F(4,29)=14.72, p<0.0001) | T35 (Fischer F-344 rats; p.o.) [mg/kg]
N[C@@]1(C(=O)O)C[C@@H](Sc2nnc[nH]2)[C@H]2[C@H](C(=O)O)[C@H]21 [Example 1, (1R,2S,4R,5R,6R)-2-Amino-4-(4H-1,2,4-triazol-3-ylsulfanyl)bicyclo[3.1.0]hexane-2,6-dicarboxylic acid] | 1.23 | 1.27 |  |  |  |  | 
C[C@H](N)C(=O)N[C@@]1(C(=O)O)C[C@@H](Sc2nnc[nH]2)[C@H]2[C@H](C(=O)O)[C@H]21.Cl [Example 2, (1R,2S,4R,5R,6R)-2-[[(2S)-2-Aminopropanoyl]amino]-4-(1H-1,2,4-triazol-3-ylsulfanyl)bicyclo[3.1.0]hexane-2,6-dicarboxylic acid hydrochloride] |  |  | 61 | 2.94 | 68 | significantly decreased immobility time | 16.2

From patent US8318184B2, “MGLU2 agonists” (Eli Lilly and Company, priority 2009, dated 2012)
